Measured values taken from US20230017045A1, “PYRIDINE AND PYRIMIDINE CARBOXYLATE HERBICIDES AND METHODS OF USE THEREOF” (Dow AgroSciences LLC, priority 2017, published 2023).

These compounds were tested on test plant species (assay: Post-emergent herbicidal activity test (greenhouse, foliar spray, visual growth reduction)). Conditions: post-emergence, 336 h, ECHCG: barnyardgrass (Echinochloa crus-galli), 140 g ai/ha, 14 days after application, read-out: Visual Growth Reduction (%) 14 Days After Application, ECHCG.
Type: in vivo
How it was run: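 Plants grown in greenhouse (15 h photoperiod, 23-29° C day/22-28° C night) to first or second true leaf stage were sprayed overhead with compound in acetone/water/isopropanol/DMSO/crop oil/X-77 carrier at 187 L/ha. Injury was scored visually after 14 d on a 0-100% scale versus solvent-blank and untreated controls.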
In the case of `COc1cc(-c2ccc(Cl)c(C(=O)O)n2)ccc1C(F)(F)F` [F317, 3-Chloro-6-(3-methoxy-4-(trifluoromethyl)phenyl)picolinic acid], the pest or weed control at 140 g/ha is reported as 0 to 29%. `COC(=O)c1nc(-c2c(N)cc(C(F)(F)F)cc2Cl)ccc1Cl` [F213, Methyl 6-(2-amino-6-chloro-4-(trifluoromethyl)phenyl)-3-chloropicolinate] showed a pest or weed control at 140 g/ha of 0 to 29%.

Same assay, conditions: post-emergence, 336 h, IPOHE: ivy-leaf morning glory (Ipomoea hederacea), 140 g ai/ha, 14 days after application, read-out: Visual Growth Reduction (%) 14 Days After Application, IPOHE
Work on `COc1cc(-c2ccc(Cl)c(C(=O)O)n2)ccc1C(F)(F)F` [F317, 3-Chloro-6-(3-methoxy-4-(trifluoromethyl)phenyl)picolinic acid] yielded a pest or weed control at 140 g/ha of 60 to 74%. With `COC(=O)c1nc(-c2c(N)cc(C(F)(F)F)cc2Cl)ccc1Cl` [F213, Methyl 6-(2-amino-6-chloro-4-(trifluoromethyl)phenyl)-3-chloropicolinate] the pest or weed control at 140 g/ha was 95 to 100%.

Same assay, conditions: post-emergence, 336 h, KCHSC: kochia (Bassia scoparia), 140 g ai/ha, 14 days after application, read-out: Visual Growth Reduction (%) 14 Days After Application, KCHSC
For `COc1cc(-c2ccc(Cl)c(C(=O)O)n2)ccc1C(F)(F)F` [F317, 3-Chloro-6-(3-methoxy-4-(trifluoromethyl)phenyl)picolinic acid], the pest or weed control at 140 g/ha was 0 to 29%. `COC(=O)c1nc(-c2c(N)cc(C(F)(F)F)cc2Cl)ccc1Cl` [F213, Methyl 6-(2-amino-6-chloro-4-(trifluoromethyl)phenyl)-3-chloropicolinate] was tested, and the pest or weed control at 140 g/ha was 60 to 74%.

Same assay, conditions: post-emergence, 336 h, ORYSA: rice (Oryza sativa), 140 g ai/ha, 14 days after application, read-out: Visual Growth Reduction (%) 14 Days After Application, ORYSA
`COc1cc(-c2ccc(Cl)c(C(=O)O)n2)ccc1C(F)(F)F` [F317, 3-Chloro-6-(3-methoxy-4-(trifluoromethyl)phenyl)picolinic acid] was tested, and the pest or weed control at 140 g/ha was 0 to 29%. `COC(=O)c1nc(-c2c(N)cc(C(F)(F)F)cc2Cl)ccc1Cl` [F213, Methyl 6-(2-amino-6-chloro-4-(trifluoromethyl)phenyl)-3-chloropicolinate] showed a pest or weed control at 140 g/ha of 0 to 29%.

Same assay, conditions: post-emergence, 336 h, SETFA: giant foxtail (Setaria faberi), 140 g ai/ha, 14 days after application, read-out: Visual Growth Reduction (%) 14 Days After Application, SETFA
In the case of `COc1cc(-c2ccc(Cl)c(C(=O)O)n2)ccc1C(F)(F)F` [F317, 3-Chloro-6-(3-methoxy-4-(trifluoromethyl)phenyl)picolinic acid], the pest or weed control at 140 g/ha is reported as 0 to 29%. Work on `COC(=O)c1nc(-c2c(N)cc(C(F)(F)F)cc2Cl)ccc1Cl` [F213, Methyl 6-(2-amino-6-chloro-4-(trifluoromethyl)phenyl)-3-chloropicolinate] yielded a pest or weed control at 140 g/ha of 30 to 44%.

Same assay, conditions: post-emergence, 336 h, SORVU: grain sorghum (Sorghum vulgare), 140 g ai/ha, 14 days after application, read-out: Visual Growth Reduction (%) 14 Days After Application, SORVU
Work on `COc1cc(-c2ccc(Cl)c(C(=O)O)n2)ccc1C(F)(F)F` [F317, 3-Chloro-6-(3-methoxy-4-(trifluoromethyl)phenyl)picolinic acid] yielded a pest or weed control at 140 g/ha of 0 to 29%. In the case of `COC(=O)c1nc(-c2c(N)cc(C(F)(F)F)cc2Cl)ccc1Cl` [F213, Methyl 6-(2-amino-6-chloro-4-(trifluoromethyl)phenyl)-3-chloropicolinate], the pest or weed control at 140 g/ha is reported as 60 to 74%.

Same assay, conditions: post-emergence, 336 h, STEME: common chickweed (Stellaria media), 140 g ai/ha, 14 days after application, read-out: Visual Growth Reduction (%) 14 Days After Application, STEME
Compound `COc1cc(-c2ccc(Cl)c(C(=O)O)n2)ccc1C(F)(F)F` [F317, 3-Chloro-6-(3-methoxy-4-(trifluoromethyl)phenyl)picolinic acid] has a pest or weed control at 140 g/ha of 0 to 29%. In the case of `COC(=O)c1nc(-c2c(N)cc(C(F)(F)F)cc2Cl)ccc1Cl` [F213, Methyl 6-(2-amino-6-chloro-4-(trifluoromethyl)phenyl)-3-chloropicolinate], the pest or weed control at 140 g/ha is reported as 0 to 29%.

Same assay, conditions: post-emergence, 336 h, TRZAS: wheat, spring (Triticum aestivum), 140 g ai/ha, 14 days after application, read-out: Visual Growth Reduction (%) 14 Days After Application, TRZAS
With `COc1cc(-c2ccc(Cl)c(C(=O)O)n2)ccc1C(F)(F)F` [F317, 3-Chloro-6-(3-methoxy-4-(trifluoromethyl)phenyl)picolinic acid] the pest or weed control at 140 g/ha was 0 to 29%. For `COC(=O)c1nc(-c2c(N)cc(C(F)(F)F)cc2Cl)ccc1Cl` [F213, Methyl 6-(2-amino-6-chloro-4-(trifluoromethyl)phenyl)-3-chloropicolinate], the pest or weed control at 140 g/ha was 0 to 29%.

Same assay, conditions: post-emergence, 336 h, blackgrass (Alopecurus myosuroides), 14 Days After Application, 140 g ai/ha, read-out: Visual Growth Reduction (%) ALOMY
Compound `COc1cc(-c2ccc(Cl)c(C(=O)O)n2)ccc1C(F)(F)F` [F317, 3-Chloro-6-(3-methoxy-4-(trifluoromethyl)phenyl)picolinic acid] has a pest or weed control at 140 g/ha of 0 to 29%. Work on `COC(=O)c1nc(-c2c(N)cc(C(F)(F)F)cc2Cl)ccc1Cl` [F213, Methyl 6-(2-amino-6-chloro-4-(trifluoromethyl)phenyl)-3-chloropicolinate] yielded a pest or weed control at 140 g/ha of 0 to 29%.

Same assay, conditions: post-emergence, 336 h, canada thistle (Cirsium arvense), 14 Days After Application, 140 g ai/ha, read-out: Visual Growth Reduction (%) CIRAR
`COc1cc(-c2ccc(Cl)c(C(=O)O)n2)ccc1C(F)(F)F` [F317, 3-Chloro-6-(3-methoxy-4-(trifluoromethyl)phenyl)picolinic acid] was tested, and the pest or weed control at 140 g/ha was 0 to 29%. `COC(=O)c1nc(-c2c(N)cc(C(F)(F)F)cc2Cl)ccc1Cl` [F213, Methyl 6-(2-amino-6-chloro-4-(trifluoromethyl)phenyl)-3-chloropicolinate] gave a pest or weed control at 140 g/ha of 0 to 29%.

Same assay, conditions: post-emergence, 336 h, crabgrass (Digitaria sanguinalis), 14 Days After Application, 140 g ai/ha, read-out: Visual Growth Reduction (%) DIGSA
Work on `COc1cc(-c2ccc(Cl)c(C(=O)O)n2)ccc1C(F)(F)F` [F317, 3-Chloro-6-(3-methoxy-4-(trifluoromethyl)phenyl)picolinic acid] yielded a pest or weed control at 140 g/ha of 0 to 29%. `COC(=O)c1nc(-c2c(N)cc(C(F)(F)F)cc2Cl)ccc1Cl` [F213, Methyl 6-(2-amino-6-chloro-4-(trifluoromethyl)phenyl)-3-chloropicolinate] gave a pest or weed control at 140 g/ha of 30 to 44%.

Same assay, conditions: post-emergence, 336 h, lambsquarters (Chenopodium album), 14 Days After Application, 140 g ai/ha, read-out: Visual Growth Reduction (%) CHEAL
`COc1cc(-c2ccc(Cl)c(C(=O)O)n2)ccc1C(F)(F)F` [F317, 3-Chloro-6-(3-methoxy-4-(trifluoromethyl)phenyl)picolinic acid] gave a pest or weed control at 140 g/ha of 0 to 29%. `COC(=O)c1nc(-c2c(N)cc(C(F)(F)F)cc2Cl)ccc1Cl` [F213, Methyl 6-(2-amino-6-chloro-4-(trifluoromethyl)phenyl)-3-chloropicolinate] gave a pest or weed control at 140 g/ha of 85 to 94%.

Same assay, conditions: post-emergence, 336 h, redroot pigweed (Amaranthus retroflexus), 14 Days After Application, 140 g ai/ha, read-out: Visual Growth Reduction (%) AMARE
Work on `COc1cc(-c2ccc(Cl)c(C(=O)O)n2)ccc1C(F)(F)F` [F317, 3-Chloro-6-(3-methoxy-4-(trifluoromethyl)phenyl)picolinic acid] yielded a pest or weed control at 140 g/ha of 0 to 29%. Compound `COC(=O)c1nc(-c2c(N)cc(C(F)(F)F)cc2Cl)ccc1Cl` [F213, Methyl 6-(2-amino-6-chloro-4-(trifluoromethyl)phenyl)-3-chloropicolinate] has a pest or weed control at 140 g/ha of 45 to 59%.

Same assay, conditions: post-emergence, 336 h, wild oat (Avena fatua), 14 Days After Application, 140 g ai/ha, read-out: Visual Growth Reduction (%) AVEFA
For `COc1cc(-c2ccc(Cl)c(C(=O)O)n2)ccc1C(F)(F)F` [F317, 3-Chloro-6-(3-methoxy-4-(trifluoromethyl)phenyl)picolinic acid], the pest or weed control at 140 g/ha was 0 to 29%. Work on `COC(=O)c1nc(-c2c(N)cc(C(F)(F)F)cc2Cl)ccc1Cl` [F213, Methyl 6-(2-amino-6-chloro-4-(trifluoromethyl)phenyl)-3-chloropicolinate] yielded a pest or weed control at 140 g/ha of 0 to 29%.

Same assay, conditions: post-emergence, 336 h, yellow nutsedge (Cyperus esculentus), 14 Days After Application, 140 g ai/ha, read-out: Visual Growth Reduction (%) CYPES
For `COc1cc(-c2ccc(Cl)c(C(=O)O)n2)ccc1C(F)(F)F` [F317, 3-Chloro-6-(3-methoxy-4-(trifluoromethyl)phenyl)picolinic acid], the pest or weed control at 140 g/ha was 0 to 29%. `COC(=O)c1nc(-c2c(N)cc(C(F)(F)F)cc2Cl)ccc1Cl` [F213, Methyl 6-(2-amino-6-chloro-4-(trifluoromethyl)phenyl)-3-chloropicolinate] gave a pest or weed control at 140 g/ha of 0 to 29%.
